Experimental data: patent US8653263B2 (Janssen Pharmaceutica, priority 2009, dated 2014)
pKi: −log10 of the molar value.

What follows are compounds tested against human orexin-2 receptor (Homo sapiens (Human), UniProt O43614) (assay: Human orexin 2 receptor radioligand binding ([3H]-EMPA competition)). Conditions: HEK293 cells stably expressing human orexin-2 receptor; [3H]-EMPA 5 nM final; apparent Ki=IC50/(1+C/Kd), Kd=2 nM; read-out: OR 2 Ki.
Sequence of human orexin-2 receptor (O43614 whole entry): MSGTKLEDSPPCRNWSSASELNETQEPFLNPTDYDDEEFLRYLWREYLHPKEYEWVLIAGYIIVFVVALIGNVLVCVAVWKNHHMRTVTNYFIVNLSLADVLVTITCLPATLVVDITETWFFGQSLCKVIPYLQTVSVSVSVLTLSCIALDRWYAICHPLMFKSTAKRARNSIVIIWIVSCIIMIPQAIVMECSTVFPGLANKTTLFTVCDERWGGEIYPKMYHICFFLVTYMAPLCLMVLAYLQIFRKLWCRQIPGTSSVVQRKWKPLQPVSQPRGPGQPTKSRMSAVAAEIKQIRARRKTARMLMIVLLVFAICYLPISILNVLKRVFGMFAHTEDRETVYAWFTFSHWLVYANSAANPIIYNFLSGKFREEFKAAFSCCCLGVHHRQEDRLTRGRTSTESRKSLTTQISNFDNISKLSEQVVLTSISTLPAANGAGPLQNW

Question: With O=C(c1cc(F)ccc1-c1ncccn1)N1CC2CN(c3cnc4ccccc4n3)CC2C1 (centres unmarked) [Example 146, 2-{5-[(5-Fluoro-2-pyrimidin-2-ylphenyl)carbonyl]hexahydropyrrolo[3,4-c]pyrrol-2(1H)-yl}quinoxaline] as the compound, how does the pKi read?
Answer: 7.57

Question: CCOc1cccc(N2CC3CN(C(=O)c4ccccc4-n4nccn4)CC3C2)n1 (centres unmarked) [Example 147, 2-(6-Ethoxypyridin-2-yl)-5-{[2-(2H-1,2,3-triazol-2-yl)phenyl]carbonyl}octahydro pyrrolo[3,4-c]pyrrole] was tested. Which pKi did it give?
Answer: 7.07

Question: With O=C(c1cc(F)ccc1-c1ncccn1)N1CC2CN(c3nccc(C(F)(F)F)n3)CC2C1 (centres unmarked) [Example 148, 2-[(5-Fluoro-2-pyrimidin-2-ylphenyl)carbonyl]-5-[4-(trifluoromethyl)pyrimidin-2-yl]octahydropyrrolo[3,4-c]pyrrole] as the compound, how does the pKi read?
Answer: 6.89

Question: With O=C(c1ccccc1-n1nccn1)N1CC2CN(c3cnc4ccccc4n3)CC2C1 (centres unmarked) [Example 149, 2-[5-{[2-(2H-1,2,3-Triazol-2-yl)phenyl]carbonyl}hexahydropyrrolo[3,4-c]pyrrol-2(1H)-yl]quinoxaline] as the compound, how does the pKi read?
Answer: 6.76

Question: How did the pKi turn out when COc1ccnc(N2CC3CN(C(=O)c4cc(F)ccc4-c4ncccn4)CC3C2)n1 (centres unmarked) [Example 150, 2-[(5-Fluoro-2-pyrimidin-2-ylphenyl)carbonyl]-5-(4-methoxypyrimidin-2-yl)octahydropyrrolo[3,4-c]pyrrole] was run?
Answer: 7.04

Question: O=C(c1ccccc1-n1nccn1)N1CC2CN(c3nccc(-c4ccco4)n3)CC2C1 (centres unmarked) [Example 151, 2-(4-Furan-2-ylpyrimidin-2-yl)-5-{[2-(2H-1,2,3-triazol-2-yl)phenyl]carbonyl}octahydropyrrolo[3,4-c]pyrrole] was tested. Which pKi did it give?
Answer: 6.74

Question: With O=C(c1ccccc1-n1nccn1)N1CC2CN(c3ccc(F)cn3)CC2C1 (centres unmarked) [Example 152, 2-(5-Fluoropyridin-2-yl)-5-{[2-(2H-1,2,3-triazol-2-yl)phenyl]carbonyl}octahydro pyrrolo[3,4-c]pyrrole] as the compound, how does the pKi read?
Answer: 6.90

Question: How did the pKi turn out when O=C(c1ccccc1-n1nccn1)N1CC2CN(c3nccc(C(F)(F)F)n3)CC2C1 (centres unmarked) [Example 153, 2-{[2-(2H-1,2,3-Triazol-2-yl)phenyl]carbonyl}-5-[4-(trifluoromethyl)pyrimidin-2-yl]octahydropyrrolo[3,4-c]pyrrole] was run?
Answer: 7.12

Question: With COc1ccnc(N2CC3CN(C(=O)c4ccccc4-c4ncn[nH]4)CC3C2)n1 (centres unmarked) [Example 154, 2-(4-Methoxypyrimidin-2-yl)-5-{[2-(1H-1,2,4-triazol-5-yl)phenyl]carbonyl}octahydropyrrolo[3,4-c]pyrrole] as the compound, how does the pKi read?
Answer: 6.62

Question: How did the pKi turn out when Cc1cnc(C)c(N2CC3CN(C(=O)c4ccccc4-n4nccn4)CC3C2)n1 (centres unmarked) [Example 155, 2-(3,6-Dimethylpyrazin-2-yl)-5-{[2-(2H-1,2,3-triazol-2-yl)phenyl]carbonyl}octahydropyrrolo[3,4-c]pyrrole] was run?
Answer: 7.48

Question: COc1ccnc(N2CC3CN(C(=O)c4ccccc4-n4nccn4)CC3C2)n1 (centres unmarked) [Example 156, 2-(4-Methoxypyrimidin-2-yl)-5-{[2-(2H-1,2,3-triazol-2-yl)phenyl]carbonyl}octahydropyrrolo[3,4-c]pyrrole] was tested. Which pKi did it give?
Answer: 7.41

Question: How did the pKi turn out when Cc1cncc(N2CC3CN(C(=O)c4ccc(F)cc4-n4nccn4)CC3C2)n1 (centres unmarked) [Example 158, 2-{[4-Fluoro-2-(2H-1,2,3-triazol-2-yl)phenyl]carbonyl}-5-(6-methylpyrazin-2-yl)octahydropyrrolo[3,4-c]pyrrole] was run?
Answer: 7.26

Question: COc1ccnc(N2CC3CN(C(=O)c4ccc(F)cc4-n4nccn4)CC3C2)n1 (centres unmarked) [Example 159, 2-{[4-Fluoro-2-(2H-1,2,3-triazol-2-yl)phenyl]carbonyl}-5-(4-methoxypyrimidin-2-yl)octahydropyrrolo[3,4-c]pyrrole] was tested. Which pKi did it give?
Answer: 7.35

Question: COc1cc(OC)nc(N2CC3CN(C(=O)c4ccc(F)cc4-n4nccn4)CC3C2)n1 (centres unmarked) [Example 160, 2-(4,6-Dimethoxypyrimidin-2-yl)-5-{[4-fluoro-2-(2H-1,2,3-triazol-2-yl)phenyl]carbonyl}octahydropyrrolo[3,4-c]pyrrole] was tested. Which pKi did it give?
Answer: 7.24

Question: COc1ccc(C(=O)N2CC3CN(c4nc5ccc(Cl)cc5s4)CC3C2)c(OC)c1 (centres unmarked) [Example 163, 6-Chloro-2-{5-[(2,4-dimethoxyphenyl)carbonyl]hexahydropyrrolo[3,4-c]pyrrol-2(1H)-yl}-1,3-benzothiazole] was tested. Which pKi did it give?
Answer: 6.42

Question: O=C(c1ccccc1-c1ccccc1)N1CC2CN(c3nccc(-c4ccccc4)n3)CC2C1 (centres unmarked) [Example 164, 2-(Biphenyl-2-ylcarbonyl)-5-(4-phenylpyrimidin-2-yl)octahydropyrrolo[3,4-c]pyrrole] was tested. Which pKi did it give?
Answer: 6.54

Question: With COc1cccc(OC)c1C(=O)N1CC2CN(c3cnc4ccccc4n3)CC2C1 (centres unmarked) [Example 165, 2-{5-[(2,6-Dimethoxyphenyl)carbonyl]hexahydropyrrolo[3,4-c]pyrrol-2(1H)-yl}quinoxaline] as the compound, how does the pKi read?
Answer: 6.07

Question: With COc1cccc(OC)c1C(=O)N1CC2CN(c3nccc(-c4ccccc4)n3)CC2C1 (centres unmarked) [Example 166, 2-[(2,6-Dimethoxyphenyl)carbonyl]-5-(4-phenylpyrimidin-2-yl)octahydropyrrolo[3,4-c]pyrrole] as the compound, how does the pKi read?
Answer: 6.33

Question: COc1ccc(C(=O)N2CC3CN(c4nccc(-c5ccccc5)n4)CC3C2)c(OC)c1 (centres unmarked) [Example 167, 2-[(2,4-Dimethoxyphenyl)carbonyl]-5-(4-phenylpyrimidin-2-yl)octahydropyrrolo[3,4-c]pyrrole] was tested. Which pKi did it give?
Answer: 6.39

Question: O=C(c1ccccc1-c1ccccc1)N1CC2CN(c3cnc4ccccc4n3)CC2C1 (centres unmarked) [Example 168, 2-[5-(Biphenyl-2-ylcarbonyl)hexahydropyrrolo[3,4-c]pyrrol-2(1H)-yl]quinoxaline] was tested. Which pKi did it give?
Answer: 7.18

Question: How did the pKi turn out when O=C(c1ccccc1-c1ccccc1)N1CC2CN(c3nc4ccccc4s3)CC2C1 (centres unmarked) [Example 169, 2-[5-(Biphenyl-2-ylcarbonyl)hexahydropyrrolo[3,4-c]pyrrol-2(1H)-yl]-1,3-benzothiazole] was run?
Answer: 6.23

Question: With COc1ccc(C(=O)N2CC3CN(c4cc(C)c5ccccc5n4)CC3C2)c(OC)c1 (centres unmarked) [Example 170, 2-{5-[(2,4-Dimethoxyphenyl)carbonyl]hexahydropyrrolo[3,4-c]pyrrol-2(1H)-yl}-4-methylquinoline] as the compound, how does the pKi read?
Answer: 6.02

Question: COc1ccc(C(=O)N2CC3CN(c4nc5ccc(OC)cc5s4)CC3C2)c(OC)c1 (centres unmarked) [Example 171, 2-{5-[(2,4-Dimethoxyphenyl)carbonyl]hexahydropyrrolo[3,4-c]pyrrol-2(1H)-yl}-6-methoxy-1,3-benzothiazole] was tested. Which pKi did it give?
Answer: 6.11

Question: With COc1ccc(C(=O)N2CC3CN(c4nc5ccc(C)cc5s4)CC3C2)c(OC)c1 (centres unmarked) [Example 172, 2-{5-[(2,4-Dimethoxyphenyl)carbonyl]hexahydropyrrolo[3,4-c]pyrrol-2(1H)-yl}-6-methyl-1,3-benzothiazole] as the compound, how does the pKi read?
Answer: 6.35

Question: With Cc1cccc(N2CC3CN(C(=O)c4ccccc4-c4ccccc4)CC3C2)n1 (centres unmarked) [Example 173, 2-(Biphenyl-2-ylcarbonyl)-5-(6-methylpyridin-2-yl)octahydropyrrolo[3,4-c]pyrrole] as the compound, how does the pKi read?
Answer: 6.02

Question: How did the pKi turn out when Cc1ccnc(N2CC3CN(C(=O)c4ccccc4-c4ccccc4)CC3C2)n1 (centres unmarked) [Example 174, 2-(Biphenyl-2-ylcarbonyl)-5-(4-methylpyrimidin-2-yl)octahydropyrrolo[3,4-c]pyrrole] was run?
Answer: 6.14

Question: How did the pKi turn out when O=C(c1ccccc1-c1ccccc1)N1CC2CN(c3ccc4ccccc4n3)CC2C1 (centres unmarked) [Example 175, 2-[5-(Biphenyl-2-ylcarbonyl)hexahydropyrrolo[3,4-c]pyrrol-2(1H)-yl]quinoline] was run?
Answer: 6.17

Question: With O=C(c1ccccc1-c1ccccc1)N1CC2CN(c3nc4ccc(F)cc4s3)CC2C1 (centres unmarked) [Example 176, 2-[5-(Biphenyl-2-ylcarbonyl)hexahydropyrrolo[3,4-c]pyrrol-2(1H)-yl]-6-fluoro-1,3-benzothiazole] as the compound, how does the pKi read?
Answer: 6.63

Question: With COc1ccnc(N2CC3CN(C(=O)c4ccccc4-c4ccccc4)CC3C2)n1 (centres unmarked) [Example 177, 2-(Biphenyl-2-ylcarbonyl)-5-(4-methoxypyrimidin-2-yl)octahydropyrrolo[3,4-c]pyrrole] as the compound, how does the pKi read?
Answer: 6.47

Question: With Cc1cc(N2CC3CN(C(=O)c4ccccc4-c4ccccc4)CC3C2)nc2ccccc12 (centres unmarked) [Example 178, 2-[5-(Biphenyl-2-ylcarbonyl)hexahydropyrrolo[3,4-c]pyrrol-2(1H)-yl]-4-methylquinoline] as the compound, how does the pKi read?
Answer: 6.91

Question: COc1ccc(C(=O)N2CC3CN(c4nccc(OC)n4)CC3C2)c(OC)c1 (centres unmarked) [Example 179, (2,4-Dimethoxy-phenyl)-[5-(4-methoxy-pyrimidin-2-yl)-hexahydro-pyrrolo[3,4-c]pyrrol-2-yl]-methanone] was tested. Which pKi did it give?
Answer: 5.05

Question: COc1ccccc1C(=O)N1CC2CN(c3nc4ccccc4o3)CC2C1 (centres unmarked) [Example 180, (5-Benzooxazol-2-yl-hexahydro-pyrrolo[3,4-c]pyrrol-2-yl)-(2-methoxy-phenyl)-methanone] was tested. Which pKi did it give?
Answer: 5.64

Question: O=C(c1ccccc1-c1cccnc1)N1CC2CN(c3cnc4ccccc4n3)CC2C1 (centres unmarked) [Example 181, (2-Pyridin-3-yl-phenyl)-(5-quinoxalin-2-yl-hexahydro-pyrrolo[3,4-c]pyrrol-2-yl)-methanone] was tested. Which pKi did it give?
Answer: 5.45

Question: With Cc1cc(C)nc(N2CC3CN(C(=O)c4ccccc4-c4ncc[nH]4)CC3C2)n1 (centres unmarked) [Example 182, [5-(4,6-Dimethyl-pyrimidin-2-yl)-hexahydro-pyrrolo[3,4-c]pyrrol-2-yl]-[2-(1H-imidazol-2-yl)-phenyl]-methanone] as the compound, how does the pKi read?
Answer: 5.66

Question: With COc1ccc(C(=O)N2CC3CN(c4nc5ccccc5o4)CC3C2)c(OC)c1 (centres unmarked) [Example 183, (5-Benzooxazol-2-yl-hexahydro-pyrrolo[3,4-c]pyrrol-2-yl)-(2,4-dimethoxy-phenyl)-methanone] as the compound, how does the pKi read?
Answer: 5.30

Question: With O=C(c1ccccc1-c1ccccc1)N1CC2CN(c3nc4ccccc4o3)CC2C1 (centres unmarked) [Example 184, (5-Benzooxazol-2-yl-hexahydro-pyrrolo[3,4-c]pyrrol-2-yl)-biphenyl-2-yl-methanone] as the compound, how does the pKi read?
Answer: 5.98

Question: With COc1ccc(C(=O)N2CC3CN(c4cccc(C)n4)CC3C2)c(OC)c1 (centres unmarked) [Example 185, (2,4-Dimethoxy-phenyl)-[5-(6-methyl-pyridin-2-yl)-hexahydro-pyrrolo[3,4-c]pyrrol-2-yl]-methanone] as the compound, how does the pKi read?
Answer: 5.05

Question: With COc1ccc(C(=O)N2CC3CN(c4nccc(C)n4)CC3C2)c(OC)c1 (centres unmarked) [Example 186, (2,4-Dimethoxy-phenyl)-[5-(4-methyl-pyrimidin-2-yl)-hexahydro-pyrrolo[3,4-c]pyrrol-2-yl]-methanone] as the compound, how does the pKi read?
Answer: 5.00
